Earlier results as cited in patent US10638758B2, “Heterocycle-containing amino acid compound and use thereof” (AICHI STEEL CORPORATION, priority 2015, dated 2020).

System: rice
Details: alkaline conditions; Non-Patent Document 2

Structure (SMILES): O=C(O)[C@@H](NCC[C@H](O)C(=O)O)[C@@H](O)CN1CC[C@H]1C(=O)O [mugineic acid]
- effect on the growth of graminaceous plants: dramatic effect
